# Measurements from patent US20260242419A1, “A CYCLIC PEPTIDE FOR TRAPPING INTERLEUKIN-1 BETA” (Merck Sharp & Dohme LLC, priority 2023, published 2026).
# Starred links: 1 amine or outer side, 2 acyl side, 3 side chain; linkers in the order of their positions; H or OH if unused. Non-standard residues stand in square brackets, D forms with d. Residues, ends and D or L forms follow the SMILES beside them. dPro(4R-(4-pyridylmethyl)) = O=C(O)[C@H]1C[C@@H](Cc2ccncc2)CN1; Trp(βS-Me,4-F) = C[C@@H](c1c[nH]c2cccc(F)c12)[C@H](N)C(=O)O; Bip(4'-CONH2) = NC(=O)c1ccc(-c2ccc(C[C@H](N)C(=O)O)cc2)cc1; Ala(1-bicyclo(1.1.1)pentyl) = N[C@@H](CC12CC(C1)C2)C(=O)O; dPro(3S-(4-F-Bn)) = O=C(O)[C@@H]1NCC[C@@H]1Cc1ccc(F)cc1; X7 = Nc1cc(-c2ccc(C[C@H](N[*:1])C(=O)[*:2])cc2)ccn1; Ala(pyrimidin-5-yl) = N[C@@H](Cc1cncnc1)C(=O)O; Phe(4-CONH2) = NC(=O)c1ccc(C[C@H](N)C(=O)O)cc1; Phe(4-COOH) = N[C@@H](Cc1ccc(C(=O)O)cc1)C(=O)O; Pro(cis-4-F) = O=C(O)[C@@H]1C[C@H](F)CN1; Ala(4-THP) = N[C@@H](CC1CCOCC1)C(=O)O; AEF = NCCOc1ccc(C[C@H](N)C(=O)O)cc1; d(αMeD) = C[C@@](N)(CC(=O)O)C(=O)O; 4Pal = N[C@@H](Cc1ccncc1)C(=O)O; aThr = C[C@H](O)[C@H](N)C(=O)O; d(αMeS) = C[C@@](N)(CO)C(=O)O; NMeDab = CN[C@@H](CCN)C(=O)O; Dab = NCC[C@H](N)C(=O)O; Aib = CC(C)(N)C(=O)O
# Biological target: T1, IL-1β (Homo sapiens, UniProt P01584)
# T1 construct: purchased BioLegend 579404
# T1 sequence (P01584 117-269): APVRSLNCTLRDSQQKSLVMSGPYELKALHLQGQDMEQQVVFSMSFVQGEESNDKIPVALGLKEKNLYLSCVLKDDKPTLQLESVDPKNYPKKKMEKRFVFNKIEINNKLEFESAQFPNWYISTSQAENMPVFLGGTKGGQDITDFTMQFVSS
# Experiment: IL-6 assay in MRC5 cells: inhibition of IL-1β induced IL-6 secretion (AlphaLISA)
# Format: cell-based
# Conditions: inhibition of IL-1β induced IL-6 secretion in MRC5 cells; read-out: MRC5 IC50
# Procedure, shortened: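 Compound was pre-incubated 1 h at ambient temperature with recombinant human IL-1β at 2λ EC80 before adding human lung fibroblast MRC5 cells (3000/well) in EMEM with 0.025% BSA. After overnight culture at 37 °C, 5% CO2, secreted IL-6 in conditioned medium was measured by AlphaLISA; IC50 from 4-parameter logistic fits.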
row,Compound,IC50
1,"CC(=O)NCCOc1ccc(C[C@@H]2NC(=O)[C@H]3[C@@H](Cc4ccc(F)cc4)CCN3C(=O)CNC(=O)[C@H](CCN)NC(=O)[C@H](CCC(N)=O)NC(=O)[C@H](CC3CCOCC3)NC(=O)[C@@](C)(CC(=O)O)NC(=O)[C@H](Cc3c[nH]c4ccccc34)NC(=O)[C@H](CO)NC(=O)C(C)(C)NC(=O)[C@H]([C@@H](C)c3c[nH]c4cccc(F)c34)NC(=O)[C@@H]3C[C@H](F)CN3C(=O)CNC(=O)[C@H](Cc3ccc(C(=O)O)cc3)NC(=O)[C@H](Cc3ccncc3)NC2=O)cc1 [Example 372] (cyclo([AEF](Ac)[4Pal][Phe(4-COOH)]G[Pro(cis-4-F)][Trp(βS-Me,4-F)][Aib]SW[d(αMeD)][Ala(4-THP)]Q[Dab]G[dPro(3S-(4-F-Bn))]))",0.009 nM
2,"CC(=O)NCCOc1ccc(C[C@@H]2NC(=O)[C@H]3[C@@H](Cc4ccc(F)cc4)CCN3C(=O)CNC(=O)[C@H](CCN)NC(=O)[C@H](CCC(N)=O)NC(=O)[C@H](CC3CCOCC3)NC(=O)[C@@](C)(CC(=O)O)NC(=O)[C@H](Cc3c[nH]c4ccccc34)NC(=O)[C@H](CO)NC(=O)C(C)(C)NC(=O)[C@H]([C@@H](C)c3c[nH]c4cccc(F)c34)NC(=O)[C@@H]3C[C@H](F)CN3C(=O)CNC(=O)[C@H](Cc3ccc(C(N)=O)cc3)NC(=O)[C@H](CC34CC(C3)C4)NC2=O)cc1 [Example 373] (cyclo([AEF](Ac)[Ala(1-bicyclo(1.1.1)pentyl)][Phe(4-CONH2)]G[Pro(cis-4-F)][Trp(βS-Me,4-F)][Aib]SW[d(αMeD)][Ala(4-THP)]Q[Dab]G[dPro(3S-(4-F-Bn))]))",0.012 nM
3,"CC(=O)NCCOc1ccc(C[C@@H]2NC(=O)[C@H]3C[C@@H](Cc4ccncc4)CN3C(=O)CNC(=O)[C@H](CCN)NC(=O)[C@H](CCC(N)=O)NC(=O)[C@H](CC3CCOCC3)NC(=O)[C@@](C)(CC(=O)O)NC(=O)[C@H](Cc3c[nH]c4ccccc34)NC(=O)[C@H](CO)NC(=O)C(C)(C)NC(=O)[C@H]([C@@H](C)c3c[nH]c4cccc(F)c34)NC(=O)[C@@H]3C[C@H](F)CN3C(=O)CNC(=O)[C@H](Cc3ccc(C(=O)O)cc3)NC(=O)[C@H](CC34CC(C3)C4)NC2=O)cc1 [Example 374] (cyclo([AEF](Ac)[Ala(1-bicyclo(1.1.1)pentyl)][Phe(4-COOH)]G[Pro(cis-4-F)][Trp(βS-Me,4-F)][Aib]SW[d(αMeD)][Ala(4-THP)]Q[Dab]G[dPro(4R-(4-pyridylmethyl))]))",0.017 nM
4,"CC(=O)NCCOc1ccc(C[C@@H]2NC(=O)[C@H]3C[C@@H](Cc4ccncc4)CN3C(=O)CNC(=O)[C@H](CCN)NC(=O)[C@H](CCC(N)=O)NC(=O)[C@H](CC3CCOCC3)NC(=O)[C@@](C)(CO)NC(=O)[C@H](Cc3c[nH]c4ccccc34)NC(=O)[C@H](CO)NC(=O)C(C)(C)NC(=O)[C@H]([C@@H](C)c3c[nH]c4cccc(F)c34)NC(=O)[C@@H]3C[C@H](F)CN3C(=O)CNC(=O)[C@H](Cc3ccc(C(=O)O)cc3)NC(=O)[C@H](CC34CC(C3)C4)NC2=O)cc1 [Example 375] (cyclo([AEF](Ac)[Ala(1-bicyclo(1.1.1)pentyl)][Phe(4-COOH)]G[Pro(cis-4-F)][Trp(βS-Me,4-F)][Aib]SW[d(αMeS)][Ala(4-THP)]Q[Dab]G[dPro(4R-(4-pyridylmethyl))]))",0.025 nM
5,"CC(=O)NCCOc1ccc(C[C@@H]2NC(=O)[C@H]3C[C@@H](Cc4ccncc4)CN3C(=O)CNC(=O)[C@H](CCN)NC(=O)[C@H](CCC(N)=O)NC(=O)[C@H](CC3CCOCC3)NC(=O)[C@@](C)(CC(=O)O)NC(=O)[C@H](Cc3c[nH]c4ccccc34)NC(=O)[C@H](CO)NC(=O)C(C)(C)NC(=O)[C@H]([C@@H](C)c3c[nH]c4cccc(F)c34)NC(=O)[C@@H]3C[C@H](F)CN3C(=O)CNC(=O)[C@H](Cc3ccc(C(N)=O)cc3)NC(=O)[C@H](CC34CC(C3)C4)NC2=O)cc1 [Example 376] (cyclo([AEF](Ac)[Ala(1-bicyclo(1.1.1)pentyl)][Phe(4-CONH2)]G[Pro(cis-4-F)][Trp(βS-Me,4-F)][Aib]SW[d(αMeD)][Ala(4-THP)]Q[Dab]G[dPro(4R-(4-pyridylmethyl))]))",0.048 nM
6,"CC(=O)NCCOc1ccc(C[C@@H]2NC(=O)[C@H]3C[C@@H](Cc4ccncc4)CN3C(=O)CNC(=O)[C@H](CCN)NC(=O)[C@H](CCC(N)=O)NC(=O)[C@H](CC3CCOCC3)NC(=O)[C@@](C)(CC(=O)O)NC(=O)[C@H](Cc3c[nH]c4ccccc34)NC(=O)[C@H](CO)NC(=O)C(C)(C)NC(=O)[C@H]([C@@H](C)c3c[nH]c4cccc(F)c34)NC(=O)[C@@H]3C[C@H](F)CN3C(=O)CNC(=O)[C@H](Cc3ccc(C(N)=O)cc3)NC(=O)[C@H](Cc3ccncc3)NC2=O)cc1 [Example 377] (cyclo([AEF](Ac)[4Pal][Phe(4-CONH2)]G[Pro(cis-4-F)][Trp(βS-Me,4-F)][Aib]SW[d(αMeD)][Ala(4-THP)]Q[Dab]G[dPro(4R-(4-pyridylmethyl))]))",0.04 nM
7,"CC(=O)NCCOc1ccc(C[C@@H]2NC(=O)[C@H]3C[C@@H](Cc4ccncc4)CN3C(=O)CNC(=O)[C@H](CCN)NC(=O)[C@H](CCC(N)=O)NC(=O)[C@H](CC3CCOCC3)NC(=O)[C@@](C)(CO)NC(=O)[C@H](Cc3c[nH]c4ccccc34)NC(=O)[C@H](CO)NC(=O)C(C)(C)NC(=O)[C@H]([C@@H](C)c3c[nH]c4cccc(F)c34)NC(=O)[C@@H]3C[C@H](F)CN3C(=O)CNC(=O)[C@H](Cc3ccc(C(N)=O)cc3)NC(=O)[C@H](Cc3ccncc3)NC2=O)cc1 [Example 378] (cyclo([AEF](Ac)[4Pal][Phe(4-CONH2)]G[Pro(cis-4-F)][Trp(βS-Me,4-F)][Aib]SW[d(αMeS)][Ala(4-THP)]Q[Dab]G[dPro(4R-(4-pyridylmethyl))]))",0.043 nM
8,"C[C@@H](c1c[nH]c2cccc(F)c12)[C@@H]1NC(=O)[C@@H]2C[C@H](F)CN2C(=O)CNC(=O)[C@H](Cc2ccc(C(=O)O)cc2)NC(=O)[C@H](Cc2ccncc2)NC(=O)[C@H](Cc2ccc(-c3ccc(C(N)=O)cc3)cc2)NC(=O)[C@H]2[C@@H](Cc3ccc(F)cc3)CCN2C(=O)CNC(=O)[C@H](CCN)NC(=O)[C@H](CCC(N)=O)NC(=O)[C@H](Cc2cncnc2)NC(=O)[C@@](C)(CC(=O)O)NC(=O)[C@H](Cc2c[nH]c3ccccc23)NC(=O)[C@H](CO)NC(=O)C(C)(C)NC1=O [Example 379] (cyclo([Bip(4'-CONH2)][4Pal][Phe(4-COOH)]G[Pro(cis-4-F)][Trp(βS-Me,4-F)][Aib]SW[d(αMeD)][Ala(pyrimidin-5-yl)]Q[Dab]G[dPro(3S-(4-F-Bn))]))",0.016 nM
9,"C[C@@H](c1c[nH]c2cccc(F)c12)[C@@H]1NC(=O)[C@@H]2C[C@H](F)CN2C(=O)CNC(=O)[C@H](Cc2ccc(C(N)=O)cc2)NC(=O)[C@H](Cc2ccncc2)NC(=O)[C@H](Cc2ccc(-c3ccc(C(N)=O)cc3)cc2)NC(=O)[C@H]2[C@@H](Cc3ccc(F)cc3)CCN2C(=O)CNC(=O)[C@H](CCN)NC(=O)[C@H](CCC(N)=O)NC(=O)[C@H](Cc2cncnc2)NC(=O)[C@@](C)(CC(=O)O)NC(=O)[C@H](Cc2c[nH]c3ccccc23)NC(=O)[C@H](CO)NC(=O)C(C)(C)NC1=O [Example 380] (cyclo([Bip(4'-CONH2)][4Pal][Phe(4-CONH2)]G[Pro(cis-4-F)][Trp(βS-Me,4-F)][Aib]SW[d(αMeD)][Ala(pyrimidin-5-yl)]Q[Dab]G[dPro(3S-(4-F-Bn))]))",0.018 nM
10,"CCO[C@@H](C)[C@@H]1NC(=O)C(C)(C)NC(=O)[C@H](Cc2c[nH]c3ccccc23)NC(=O)[C@H](CO)NC(=O)C(C)(C)NC(=O)[C@H]([C@@H](C)c2c[nH]c3cccc(F)c23)NC(=O)[C@@H]2C[C@H](F)CN2C(=O)CNC(=O)[C@H](Cc2ccc(C(N)=O)cc2)NC(=O)[C@H](Cc2ccncc2)NC(=O)[C@H](Cc2ccc(OCCNC(C)=O)cc2)NC(=O)[C@H]2C[C@@H](Cc3ccncc3)CN2C(=O)CNC(=O)[C@H](CCN)N(C)C(=O)[C@H](CCC(N)=O)NC1=O [Example 381] (cyclo([4Pal][Phe(4-CONH2)]G[Pro(cis-4-F)][Trp(βS-Me,4-F)][Aib]SW[Aib][aThr](Et)Q[NMeDab]G[dPro(4R-(4-pyridylmethyl))][AEF](Ac)))",0.041 nM
11,"CCO[C@H](C)[C@@H]1NC(=O)C(C)(C)NC(=O)[C@H](Cc2c[nH]c3ccccc23)NC(=O)[C@H](CO)NC(=O)C(C)(C)NC(=O)[C@H]([C@@H](C)c2c[nH]c3cccc(F)c23)NC(=O)[C@@H]2C[C@H](F)CN2C(=O)CNC(=O)[C@H](Cc2ccc(C(N)=O)cc2)NC(=O)[C@H](Cc2ccncc2)NC(=O)[C@H](Cc2ccc(OCCNC(C)=O)cc2)NC(=O)[C@H]2C[C@@H](Cc3ccncc3)CN2C(=O)CNC(=O)[C@H](CCN)N(C)C(=O)[C@H](CCC(N)=O)NC1=O [Example 382] (cyclo([AEF](Ac)[4Pal][Phe(4-CONH2)]G[Pro(cis-4-F)][Trp(βS-Me,4-F)][Aib]SW[Aib]T(Et)Q[NMeDab]G[dPro(4R-(4-pyridylmethyl))]))",0.048 nM
12,"C[C@@H](c1c[nH]c2cccc(F)c12)[C@@H]1NC(=O)[C@@H]2C[C@H](F)CN2C(=O)CNC(=O)[C@H](Cc2ccc(C(=O)O)cc2)NC(=O)[C@H](Cc2ccncc2)NC(=O)[C@H](Cc2ccc(-c3ccnc(N)c3)cc2)NC(=O)[C@H]2[C@@H](Cc3ccc(F)cc3)CCN2C(=O)CNC(=O)[C@H](CCN)NC(=O)[C@H](CCC(N)=O)NC(=O)[C@H](Cc2cncnc2)NC(=O)[C@@](C)(CC(=O)O)NC(=O)[C@H](Cc2c[nH]c3ccccc23)NC(=O)[C@H](CO)NC(=O)C(C)(C)NC1=O [Example 385] (cyclo([X7][4Pal][Phe(4-COOH)]G[Pro(cis-4-F)][Trp(βS-Me,4-F)][Aib]SW[d(αMeD)][Ala(pyrimidin-5-yl)]Q[Dab]G[dPro(3S-(4-F-Bn))]))",0.023 nM
